{
  "source": "patent EP2114888B1",
  "about": "“TRICYCLIC COMPOUNDS AND THEIR USE AS GLUCOCORTICOID RECEPTOR MODULATORS” (priority 2007, dated 2008)",
  "key": {"[1]": {"assay": "Caco-2 cell monolayer A→B permeability assay", "conditions": "human", "from_the_text": "The Caco-2 cell monolayer is an in vitro tissue culture model of the intestinal epithelium. These cells are of human colonic origin and become polarized, fully differentiated enterocytes in 2-3 weeks. Once differentiated, these cells have tight junctions and express various biochemical processes such as active efflux transporters including P-glycoprotein (P-gp). With this model, it is possible to determine the apparent permeability (Papp) of a compound across the polarized Caco-2 cell monolayer.\nAn A→B Assay is performed with Caco-2 cell monolayers to determine compound Papp from A chamber to B chamber. This Papp is representative of luminal (gut) to serosal (blood) compound transport across intestinal epithelium that may be seen during intestinal absorption."}, "[2]": {"assay": "Oral absorption profile, time to Cmax in dogs", "conditions": "dog, in vivo"}, "[3]": {"assay": "Solubility and intrinsic dissolution", "format": "physicochemical"}, "[4]": {"biological_target": "full-length glucocorticoid (GR) protein", "assay": "Glucocorticoid receptor fluorescence polarization ligand binding (GRFP) assay", "conditions": "additional result (footnote a)", "from_the_text": "The glucocorticoid receptor fluorescence polarization ligand binding (GRFP) assay is used to evaluate direct binding of testing compounds to full-length glucocorticoid (GR) protein. Reagents for this assay are purchased from Invitrogen in a test kit. A fluorescent labeled GR ligand is used as a fluorescent tracer and test compounds compete with the fluorescent tracer for GR binding. The change in polarization value in the presence of test compounds is due to binding of test compounds to GR and is used to determine IC50 and relative binding affinity of test compounds for GR."}, "[5]": {"assay": "Oral absorption profile in rats"}, "IL-6": {"test_system": "IL-6", "assay": "IL-1β-stimulated IL-6 production in A549 lung epithelial cells", "format": "cell-based, Human", "description": "Human A549 lung epithelial cells (American Type Culture Collection, Rockville, MD) were cultured in Kaighn's F-12K medium with penicillin-streptomycin (10 U/mL) and 10% heat-inactivated fetal bovine serum (all from Invitrogen, Grand Island, NY). A549 cells were plated at a density of 30,000 cells/well in 96-well plates and incubated overnight at 37°C and with 5% CO2. The cells were serum-starved by replacing the growth medium with serum-free Kaighn's F-12K medium with penicillin-streptomycin (10 U/mL) and, again, incubating overnight at 37°C and with 5% CO2. On the third day, the medium was replaced with fresh serum-free medium and the cells were incubated with or without compound (vehicle was DMSO at 0.1 % maximum concentration) for approximately 1 hour and then stimulated with 1 ng/mL recombinant human IL-1β (R&D Systems, Minneapolis, MN) for 20 hours at 37°C and with 5% CO2. Cell supernatants were collected for determination of IL-6 levels using MSD (Meso Scale Discovery, Gaithersburg, MD) 96-well Single Spot plates as per the manufacturer's instructions. Plates were read with an MSD Sector Imager 6000. […] Percent inhibition for each compound concentration, relative to these controls, was calculated using Excel (Microsoft, Redmond, WA). IC50 values were generated using GraFit 5.0 data analysis software (Erithacus Software Ltd., Surrey, UK)."}, "in vivo": {"assay": "in vivo", "conditions": "rat, po"}, "[6]": {"assay": "Oral dosing in portal vein-cannulated rats, portal vein plasma", "format": "in vivo", "conditions": "oral dosing 30 and 200 mg/kg, over a four-hour time period"}},
  "data": [
    {"smiles": "Cc1ncccc1NC(=O)c1ccc2c(c1)CC[C@@H]1C[C@@](OP(=O)(O)O)(C(F)(F)F)CC[C@@]21Cc1ccccc1", "note": "[Example 2, (2R,4αS,10αR)-4α-benzyl-7-((2-methylpyridin-3-yl)carbamoyl)-2-(trifluoromethyl)-1,2,3,4,4α,9,10,10α-octahydrophenanthren-2-yl dihydrogen phosphate]", "values": [
      {"measurement": "Papp A→B", "setting": "[1]", "result": 1.15, "unit": "×10⁻⁶ cm/s"},
      {"measurement": "Tmax", "setting": "[2]", "result": 48, "unit": "min"},
      {"measurement": "solubility and intrinsic dissolution", "setting": "[3]", "result": "enhanced solubility and intrinsic dissolution"},
      {"measurement": "Example 1 in apical and basolateral compartments", "setting": "Caco-2 cell monolayer", "result": "significant elevation of Example 1 in both the apical and basolateral compartments"},
      {"measurement": "IC50", "setting": "[4]", "result": 42, "unit": "nM"},
      {"measurement": "bioavailability F", "setting": "[5]", "result": 59, "unit": "%"},
      {"measurement": "Cmax", "setting": "[5]; oral", "result": 590, "unit": "ng/mL"},
      {"measurement": "IL-6 % Inhibition", "setting": "IL-6; A549 cells, additional result (footnote a)", "result": 80, "unit": "%"},
      {"measurement": "inhibition", "setting": "IL-6; Homo sapiens, A549", "result": 60.2, "unit": "%"},
      {"measurement": "IC50", "setting": "IL-6; Homo sapiens, A549 cells, additional result (footnote a)", "result": 17, "unit": "nM"},
      {"measurement": "AUC", "setting": "in vivo", "result": 1610, "unit": "ng·h/mL"},
      {"measurement": "detection in portal vein plasma samples", "setting": "[6]", "result": "detection of Example 1, but not Example 2"}
    ]}
  ]
}
